Results published in publication PMC12686126, “LL‐37 Inhibits TMPRSS2‐Mediated S2' Site Cleavage and SARS‐CoV‐2 Infection but Not Omicron Variants” (Cell Proliferation, 2025).

Key:
[1] = test system: SARS‐CoV‐2^N764K spike pseudovirus; type: cell-based
SARS‐CoV‐2 spike = type: cell-based
[2] = test system: spike with N764K mutation; type: cell-based, SARS‐CoV‐2
[3] = test system: spike with D796Y mutation; type: cell-based, SARS‐CoV‐2
[4] = test system: spike with N969K mutation; type: cell-based, SARS‐CoV‐2
[5] = test system: S2 subunit with D796Y mutation; type: binding, SARS‐CoV‐2
[6] = test system: S2 subunit with N969K mutation; type: binding, SARS‐CoV‐2
[7] = test system: SARS‐CoV‐2 spike S2 subunit; type: cell-based
[8] = test system: spike with N764K mutation; type: cell-based, SARS‐CoV‐2; remark: listed apart in the source
[9] = test system: SARS‐CoV‐2 spike pseudovirus; type: cell-based

LLGDFFRKSKEKIGKEFKRIVQRIKDFLRNLVPRTES [LL‐37]
reduction of RLU induced by SARS‐CoV‐2^N764K [1]: did not significantly reduce
cell–cell fusion activity after LL‐37 pretreatment (SARS‐CoV‐2 spike): significantly lower cell–cell fusion activity
cell–cell fusion activity after LL‐37 pretreatment [2]: not the spike‐expressing cells with N764K mutation
cell–cell fusion activity after LL‐37 pretreatment [3]: significantly lower cell–cell fusion activity
cell–cell fusion activity after LL‐37 pretreatment [4]: significantly lower cell–cell fusion activity
binding of S2 subunit to immobilised LL‐37 [5]: no difference or even enhanced binding
binding of S2 subunit to immobilised LL‐37 [6]: no difference or even enhanced binding
effect on polybasic cleavage site (S1/S2 boundary) [7]: excluded the effect of LL‐37 on the polybasic cleavage site
generation of S2' fragment [8]: did not significantly reduce
inhibition of RLU only caused by overexpression of TMPRSS2 [9]: about 70%
inhibition of pseudovirus entry into 293T‐A2T2 cells [9]: 52%
